Data set [1] has as its system HBV (HepG2.117 cell line, inducibly HBV producing). Briefly: Anti-HBV activity: intracellular HBV DNA by real-time PCR in HepG2.117 cells after 3 days of treatment. The class given is cell-based, hepatitis B virus. In outline: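 Read-out is intracellular HBV DNA, measured by real-time PCR using HBV-specific primers and probe. Cells were stable, inducible HBV-producing HepG2.117 (Tet-off). Serially diluted compound was applied for 3 days after replication was induced.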
(In general: In qPCR the cycle at which signal appears reflects the starting amount.)

Data set [2] is described as follows: in vitro. The class given is cell-based. The settings on record: human, HepG2 or HepG2.117 cells, mean value. The gist of the method:
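Luminescent ATP quantitation served as the viability endpoint following a 3- or 4-day incubation with test compounds.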

Setting [3] is: Hepatitis B virus, HepG2.117, 72 h, HepG2.117 cells, intracellular HBV DNA by real-time PCR, 3 days of treatment, mean value; read-out: EC50 (μM, mean value).
Setting [4] is: ATPlite, 3-days incubation (not marked with *).
[5] abbreviates: Hepatitis B virus, HepG2.117, 72 h, HepG2.117 cells, 3 days of treatment, intracellular HBV DNA by real-time PCR; mean value; read-out: EC50 (μM, mean value).
[6] abbreviates: 3-days incubation (unmarked values), ATPlite.

Structures are written as SMILES. Where two headings read alike, the source gives them in different places. A value given as a limit tells only on which side of the number the result lay.

In the case of `CNC(=O)c1ccc(-n2c(N[C@H](C)c3ccccc3OC(F)F)nc3c(c2=O)C[C@@H](C)N(C(=O)c2ccc(Cl)c(Cl)c2)C3)cc1` (single isomer, unassigned) [Compound C438a], the concentration for a half-maximal effect (EC50) in data set [1] (setting [3]) is 0.73 µM. The CC50 at 3 days in data set [2] (setting [4]) turned out to be 29.2 µM.
Turning to `CCC(C)Nc1nc2c(c(=O)n1-c1ccccc1OC)CCN(C(=O)c1ccc(Cl)c(Cl)c1)C2` (centres unmarked) [Compound C49, 2-[(butan-2-yl)amino]-7-(3,4-dichlorobenzoyl)-3-(2-methoxyphenyl)-5,6,7,8-tetrahydropyrido[3,4-d]pyrimidin-4(3H)-one], the EC50 in data set [1] (setting [5]) was 2.41 µM. Moreover, the CC50 at 3 days in data set [2] (setting [6]) turned out to be 26.8 µM.
Take `COc1ccc(CNc2nc3c(c(=O)n2-c2cccnc2C)CCN(C(=O)c2ccc(Cl)c(Cl)c2)C3)cc1` [Compound C96, 7-(3,4-dichlorobenzoyl)-2-{[(4-methoxyphenyl)methyl]amino}-3-(2-methylpyridin-3-yl)-5,6,7,8-tetrahydropyrido[3,4-d]pyrimidin-4(3H)-one]: in data set [1] (setting [5]), the half-maximal effective concentration (EC50) turned out to be 0.65 µM. The molecule also came in with a CC50 at 3 days in data set [2] (setting [6]) of 24.3 µM.
As for `O=C(c1ccc(Cl)c(Cl)c1)N1CCc2c(nc(NC(CO)CO)[nH]c2=O)C1` [Compound C98, 7-(3,4-dichlorobenzoyl)-2-[(1,3-dihydroxypropan-2-yl)amino]-5,6,7,8-tetrahydropyrido[3,4-d]pyrimidin-4(3H)-one], in data set [1] (setting [5]), the EC50 was found to be 36.5 µM. The molecule further registered a CC50 at 3 days in data set [2] (setting [6]) of over 50 µM.
For `CNC(=O)c1ccc(-n2c(N3CCOC(C)C3)nc3c(c2=O)C[C@@H](C)N(C(=O)c2ccc(Cl)c(Cl)c2)C3)cc1` (some centres unmarked) [Compound C470], in data set [1] (setting [3]), the EC50 is over 25 µM. Moreover, in data set [2] (setting [4]), the CC50 at 3 days is over 50 µM.
Take `CSc1nc2c(c(=O)[nH]1)CCN(C(=O)c1ccc(Cl)c(Cl)c1)C2` [Compound C6, 7-(3,4-dichlorobenzoyl)-2-(methylsulfanyl)-5,6,7,8-tetrahydropyrido[3,4-d]pyrimidin-4(3H)-one]: in data set [1] (setting [5]), the EC50 is 16 µM. This molecule came in with a cytotoxic concentration (CC50) at 4 days in data set [2] (4-days incubation (values marked with *), ATPlite) of over 50 µM.
Turning to `COc1ccc(CNc2nc3c(c(=O)[nH]2)CCN(C(=O)c2ccc(C#N)c(Cl)c2)C3)cc1` [Compound C82, 2-chloro-4-[2-{[(4-methoxyphenyl)methyl]amino}-4-oxo-4,5,6,8-tetrahydropyrido[3,4-d]pyrimidine-7(3H)-carbonyl]benzonitrile], in data set [1] (setting [5]), the EC50 stood at 23.4 µM. The molecule also gave a CC50 at 3 days in data set [2] (setting [6]) of over 50 µM.
In the case of `CNC(=O)c1cnc(-n2c(NC(C)C)nc3c(c2=O)C[C@@H](C)N(C(=O)c2ccc(Cl)c(C(F)(F)F)c2)C3)cn1` [Compound C695], the concentration giving a half-maximal response (EC50) in data set [1] (setting [5]) was 0.04 µM. This molecule also showed a CC50 at 3 days in data set [2] (3-days incubation (unmarked values), ATPlite viability) of over 50 µM.
Turning to `CNC(=O)c1ccc(-n2c(NC(C)C)nc3c(c2=O)C[C@@H](C)N(C(=O)c2cc4c(F)cccc4[nH]2)C3)cc1` [Compound C505], the EC50 in data set [1] (setting [3]) stood at 0.02 µM. The molecule further returned a CC50 at 3 days in data set [2] (setting [4]) of 25.6 µM.
For the molecule `CC(C)Nc1nc2c(c(=O)n1-c1ccc(C(=O)NCCN3CCOCC3)cc1)C[C@@H](C)N(C(=O)c1ccc(Cl)c(Cl)c1)C2` [Compound C203, 4-[(6R)-7-(3,4-dichlorobenzoyl)-6-methyl-4-oxo-2-[(propan-2-yl)amino]-5,6,7,8-tetrahydropyrido[3,4-d]pyrimidin-3(4H)-yl]-N-[2-(morpholin-4-yl)ethyl]benzamide], in data set [1] (setting [5]), the EC50 came to 0.15 µM. This molecule returned a CC50 at 3 days in data set [2] (setting [6]) of over 50 µM.
On to `COC(=O)c1ccc(-n2c(NC(C)CCCCO)nc3c(c2=O)C[C@@H](C)N(C(=O)c2ccc(Cl)c(Cl)c2)C3)cc1OC` (some centres unmarked) [Compound C670], for which the EC50 in data set [1] (setting [3]) was determined as 0.37 µM. In data set [2] (setting [4]), the CC50 at 3 days was over 50 µM.
For `CC(C)Nc1nc2c(c(=O)n1-c1ccc(-c3nccs3)cc1)C[C@@H](C)N(C(=O)c1ccc(Cl)c(Cl)c1)C2` [Compound C240, (6R)-7-(3,4-dichlorobenzoyl)-6-methyl-2-[(propan-2-yl)amino]-3-[4-(1,3-thiazol-2-yl)phenyl]-5,6,7,8-tetrahydropyrido[3,4-d]pyrimidin-4(3H)-one], the EC50 in data set [1] (setting [5]) stood at 0.13 µM. For the same molecule, the CC50 at 3 days in data set [2] (setting [6]) was over 50 µM.
For the molecule `CNC(=O)c1ccc(-n2c(NC(C)C)nc3c(c2=O)C[C@@H](C)N(C(=O)c2ccc(Cl)c(Cl)c2)C3)c(Cl)c1` [Compound C293, 3-chloro-4-[(6R)-7-(3,4-dichlorobenzoyl)-6-methyl-4-oxo-2-[(propan-2-yl)amino]-5,6,7,8-tetrahydropyrido[3,4-d]pyrimidin-3(4H)-yl]-N-methylbenzamide], in data set [1] (setting [5]), the EC50 was 0.06 µM. Also, the CC50 at 3 days in data set [2] (setting [6]) is 34.9 µM.
For the molecule `CNC(=O)c1ccc(-n2c(N[C@@H](C)c3ccc(C(F)(F)F)cc3)nc3c(c2=O)C[C@@H](C)N(C(=O)c2ccc(Cl)c(Cl)c2)C3)cc1` (single isomer, unassigned) [Compound C413b], the EC50 in data set [1] (setting [3]) was determined as 4.13 µM. In data set [2] (setting [4]), this molecule came in with a CC50 at 3 days of 8.3 µM.
`CNC(=O)c1ccc(-n2c(N[C@H]3CCC34CCC4)nc3c(c2=O)C[C@@H](C)N(C(=O)c2ccc(Cl)c(Cl)c2)C3)cc1` (single isomer, unassigned) [Compound C346b]: the EC50 in data set [1] (setting [3]) worked out at 0.22 µM. Also, in data set [2] (setting [4]), the CC50 at 3 days is over 50 µM.
In the case of `CC(C)Nc1nc2c(c(=O)n1-c1cccc3c1CNC3=O)C[C@@H](C)N(C(=O)c1ccc(Cl)c(Cl)c1)C2` [Compound C323, (6R)-7-(3,4-dichlorobenzoyl)-6-methyl-3-(1-oxo-2,3-dihydro-1H-isoindol-4-yl)-2-[(propan-2-yl)amino]-5,6,7,8-tetrahydropyrido[3,4-d]pyrimidin-4(3H)-one], the EC50 in data set [1] (setting [5]) came to 0.35 µM. Also, the CC50 at 3 days in data set [2] (setting [6]) is over 50 µM.
With `CNC(=O)c1cc(-n2c(NC(C)C)nc3c(c2=O)C[C@@H](C)N(C(=O)c2ccc(Cl)c(C(F)F)c2)C3)n(C)n1` [Compound C672], the EC50 in data set [1] (setting [3]) stood at 0.09 µM. Moreover, the CC50 at 3 days in data set [2] (setting [4]) was over 50 µM.
Turning to `CC(=O)Nc1ccc(-n2c(NC(C)C)nc3c(c2=O)C[C@@H](C)N(C(=O)c2ccc(Cl)c(Cl)c2)C3)cc1` [Compound C409], the concentration for a half-maximal effect (EC50) in data set [1] (setting [3]) was 0.11 µM. The CC50 at 3 days in data set [2] (setting [4]) was over 50 µM.
In the case of `CNC(=O)c1ccc(-n2c(N[C@@H]3CCOc4cc(OC)ccc43)nc3c(c2=O)C[C@@H](C)N(C(=O)c2ccc(Cl)c(Cl)c2)C3)cc1` (single isomer, unassigned) [Compound C527a], the concentration giving a half-maximal response (EC50) in data set [1] (setting [3]) was 0.39 µM. In data set [2] (setting [4]), the CC50 at 3 days was over 50 µM.
Turning to `C#C[C@H](C)Nc1nc2c(c(=O)n1-c1ccc(C(=O)NC)cc1)C[C@@H](C)N(C(=O)c1ccc(Cl)c(Cl)c1)C2` [Compound C302, 4-[(6R)-2-{[(2S)-but-3-yn-2-yl]amino}-7-(3,4-dichlorobenzoyl)-6-methyl-4-oxo-5,6,7,8-tetrahydropyrido[3,4-d]pyrimidin-3(4H)-yl]-N-methylbenzamide], the EC50 in data set [1] (setting [5]) was determined as 0.06 µM. Further, the CC50 at 3 days in data set [2] (setting [6]) was over 50 µM.
In the case of `CNC(=O)c1ccc(-n2c(NC(C)(C)c3ccccc3)nc3c(c2=O)C[C@@H](C)N(C(=O)c2ccc(Cl)c(Cl)c2)C3)cc1` [Compound C407], the EC50 in data set [1] (setting [3]) amounted to 0.15 µM. This molecule also gave a cytotoxic concentration (CC50) at 3 days in data set [2] (setting [4]) of 18 µM.
`CC(C)Nc1nc2c(c(=O)n1-c1ccc(-c3ccn4ccnc4c3)cc1)C[C@@H](C)N(C(=O)c1ccc(Cl)c(Cl)c1)C2` [Compound C189, (6R)-7-(3,4-dichlorobenzoyl)-3-[4-(imidazo[1,2-a]pyridin-7-yl)phenyl]-6-methyl-2-[(propan-2-yl)amino]-5,6,7,8-tetrahydropyrido[3,4-d]pyrimidin-4(3H)-one]: the EC50 in data set [1] (setting [5]) came out at 0.1 µM. This molecule showed a CC50 at 3 days in data set [2] (setting [6]) of 9.8 µM.

The EC50 is the concentration needed to bring the measured effect to its halfway point. What is called CC50 is the concentration giving 50% cytotoxicity. Lower therefore signals greater toxicity to the cells.

The values are drawn from patent publication US20230091047A1 (priority 2019, published 2023).
